Measurements reported in US20150231236A1, “METHODS FOR TREATING PATIENTS WITH HYPERCHOLESTEROLEMIA THAT IS NOT ADEQUATELY CONTROLLED BY MODERATE-DOSE STATIN THERAPY” (Regeneron Pharmaceuticals, Inc., priority 2014, published 2015).

Key:
[1] = as reported elsewhere; cited from earlier work
[2] = tested on: patients with hypercholesterolemia at high CV risk not adequately controlled with rosuvastatin (10 mg or 20 mg); assay: Example 3: safety, treatment-emergent adverse events in pooled treatment groups; conditions: Safety Population; pooled treatment groups
[3] = tested on: patients with hypercholesterolemia at high CV risk not adequately controlled with rosuvastatin (10 mg or 20 mg); assay: Example 3: randomized, double-blind trial, lipid efficacy of mAb316P add-on to rosuvastatin vs EZE add-on or rosuvastatin dose doubling; format: in vivo, human; conditions: for Proportion of Patients Reaching LDL-C goal (%) / LDL-C W24 % change from baseline, LS mean (SE): week 24; for Proportion of Patients Reaching LDL-C goal (%): LDL-C <70 mg/dL very high risk or <100 mg/dL high risk; for LDL-C W24 % change from baseline, LS mean (SE): ITT population, treatment arm as labelled
[4] = Week 4, baseline rosuvastatin 10 mg
[5] = Week 4, baseline rosuvastatin 20 mg
[6] = Week 8, baseline rosuvastatin 10 mg
[7] = Week 8, baseline rosuvastatin 20 mg
[8] = Week 12, baseline rosuvastatin 10 mg
[9] = Week 12, baseline rosuvastatin 20 mg
[10] = Week 16, baseline rosuvastatin 10 mg
[11] = Week 16, baseline rosuvastatin 20 mg
[12] = Week 24, baseline rosuvastatin 10 mg
[13] = Week 24, baseline rosuvastatin 20 mg

CC(C)c1nc(N(C)S(C)(=O)=O)nc(-c2ccc(F)cc2)c1/C=C/[C@@H](O)C[C@@H](O)CC(=O)O [rosuvastatin, reference compound]
reduction in LDL-C levels when switching from atorvastatin 40 mg per day to rosuvastatin 40 mg per day [1]: ~8% | General Allergic TEAEs [2]: 7 (6.9%) patients (%) | SOC General disorders and administration site conditions [2]: 10 (9.9%) patients (%) | SOC Psychiatric disorders [2]: 3 (3.0%) patients (%) | SOC Respiratory, thoracic and mediastinal disorders [2]: 5 (5.0%) patients (%) | SOC Skin and subcutaneous tissue disorders [2]: 6 (5.9%) patients (%) | TEAEs [2]: 68 (67.3%) patients (%) | Treatment-emergent SAEs [2]: 8 (7.9%) patients (%) | Treatment-emergent cardiovascular events adjudicated positively [2]: 1 (1.0%) patients (%) | Treatment-emergent neurocognitive disorders [2]: 2 (2.0%) patients (%) | Treatment-emergent neurologic disorders [2]: 2 (2.0%) patients (%) | cough [2]: 3 (3.0%) patients (%) | discontinued study treatment early due to a treatment emergent adverse event [2]: 5 (5.0%) patients (%) | injection site reactions (ISRs) [2]: 2 (2.0%) patients (%) | Proportion of Patients Reaching LDL-C goal (%) ([3]; Baseline Rosuvastatin 10 mg): 45.0% | Proportion of Patients Reaching LDL-C goal (%) ([3]; Baseline Rosuvastatin 20 mg): 40.1% | Calculated LDL-C LS mean (SE) Value ([3]; Baseline, baseline rosuvastatin 10 mg): 105.9 (5.2) mg/dL | Calculated LDL-C LS mean (SE) Value ([3]; Baseline, baseline rosuvastatin 20 mg): 113.7 (6.0) mg/dL | LDL-C W24 % change from baseline, LS mean (SE) ([3]; listed as RSV 20): −16.3% | LDL-C W24 % change from baseline, LS mean (SE) ([3]; listed as RSV 40): −15.9% | Calculated LDL-C LS mean (SE) Value [3, 4]: 89.1 (3.6) mg/dL | Calculated LDL-C LS mean (SE), % Change from Baseline [3, 4]: −13.1 (3.2) % | Calculated LDL-C LS mean (SE), Change from Baseline [3, 4]: −16.2 (3.6) | Calculated LDL-C LS mean (SE) Value [3, 5]: 92.0 (3.4) mg/dL | Calculated LDL-C LS mean (SE), % Change from Baseline [3, 5]: −20.0 (5.3) % | Calculated LDL-C LS mean (SE), Change from Baseline [3, 5]: −25.1 (3.4) | Calculated LDL-C LS mean (SE) Value [3, 6]: 85.4 (4.3) mg/dL | Calculated LDL-C LS mean (SE), % Change from Baseline [3, 6]: −17.0 (3.8) % | Calculated LDL-C LS mean (SE), Change from Baseline [3, 6]: −19.9 (4.3) | Calculated LDL-C LS mean (SE) Value [3, 7]: 91.9 (4.3) mg/dL | Calculated LDL-C LS mean (SE), % Change from Baseline [3, 7]: −21.2 (5.7) % | Calculated LDL-C LS mean (SE), Change from Baseline [3, 7]: −25.2 (4.3) | Calculated LDL-C LS mean (SE) Value [3, 8]: 85.7 (4.1) mg/dL | Calculated LDL-C LS mean (SE), % Change from Baseline [3, 8]: −17.1 (4.1) % | Calculated LDL-C LS mean (SE), Change from Baseline [3, 8]: −19.6 (4.1) | Calculated LDL-C LS mean (SE) Value [3, 9]: 90.4 (4.3) mg/dL | Calculated LDL-C LS mean (SE), % Change from Baseline [3, 9]: −22.1 (5.3) % | Calculated LDL-C LS mean (SE), Change from Baseline [3, 9]: −26.6 (4.3) | Calculated LDL-C LS mean (SE) Value [3, 10]: 83.6 (4.7) mg/dL | Calculated LDL-C LS mean (SE), % Change from Baseline [3, 10]: −19.3 (4.8) % | Calculated LDL-C LS mean (SE), Change from Baseline [3, 10]: −21.6 (4.7) | Calculated LDL-C LS mean (SE) Value [3, 11]: 93.8 (4.8) mg/dL | Calculated LDL-C LS mean (SE), % Change from Baseline [3, 11]: −18.5 (6.3) % | Calculated LDL-C LS mean (SE), Change from Baseline [3, 11]: −23.3 (4.8) | Calculated LDL-C LS mean (SE) Value [3, 12]: 85.4 (4.3) mg/dL | Calculated LDL-C LS mean (SE), % Change from Baseline [3, 12]: −16.3 (4.1) % | Calculated LDL-C LS mean (SE), Change from Baseline [3, 12]: −19.9 (4.3) | Calculated LDL-C LS mean (SE) Value [3, 13]: 95.5 (5.7) mg/dL | Calculated LDL-C LS mean (SE), % Change from Baseline [3, 13]: −15.9 (7.1) % | Calculated LDL-C LS mean (SE), Change from Baseline [3, 13]: −21.5 (5.7) | proportion of patients who reached LDL-C level of <70 mg/dL (1.81 mmol/L) at Week 24 ([3]; baseline rosuvastatin 10 mg regimen): 31.3% | proportion of patients who reached LDL-C level of <70 mg/dL (1.81 mmol/L) at Week 24 ([3]; baseline rosuvastatin 20 mg regimen): 29.9%
